Experimental findings from US20160158317A1, “Antimicrobial Peptide Variants and Polynucleotides Encoding Same” (Adenium Biotech A/S, priority 2010, published 2016) are described below.

Where a SMILES comes first, the peptide text is derived from it. Bridges are numbered along the chain shown (N, C = ends).

A short description of the series: Determination of the protein binding (90% serum, 30 kDa filter, HPLC). The following applies: serum. In kind it is in vitro ADME. The method, then: Protein binding assays were performed as follows. The purified peptides were mixed with 90% serum and centrifuged through a 30 kDa filter. The ultra-filtrate and the non filtrated serum samples were quantified by HPLC measurements and the protein binding was subsequently calculated.

As for `CC(C)[C@@H]1NC(=O)CNC(=O)[C@H](CC(N)=O)NC(=O)[C@H](CCCCN)NC(=O)[C@H](Cc2ccc(O)cc2)NC(=O)[C@H](C(C)C)NC(=O)[C@@H]2CSSC[C@H](NC(=O)[C@H](C(C)C)NC(=O)[C@H](CCCNC(=N)N)NC1=O)C(=O)N[C@@H](Cc1c[nH]cn1)C(=O)N[C@@H](CCCNC(=N)N)C(=O)N[C@@H](CCCNC(=N)N)C(=O)N[C@H](C(=O)N[C@@H](CC(N)=O)C(=O)O)CSSC[C@H](NC(=O)[C@H](Cc1ccccc1)NC(=O)CN)C(=O)N[C@@H](Cc1c[nH]c3ccccc13)C(=O)N[C@@H](Cc1ccc(O)cc1)C(=O)N[C@@H](C(C)C)C(=O)N2` [compound 89] (H-GFCWYVCVYKNGVRVCHRRCN-OH; disulfide 3-20, 7-16 (inferred); N-terminus and C-terminus assumed), the free fraction (fraction unbound) is 0.1.

In turn, `CC(C)[C@@H]1NC(=O)CNC(=O)[C@H](CC(N)=O)NC(=O)[C@H](CCCNC(=N)N)NC(=O)[C@H](Cc2ccc(O)cc2)NC(=O)[C@H](C(C)C)NC(=O)[C@@H]2CSSC[C@H](NC(=O)[C@H](C(C)C)NC(=O)[C@H](CCCNC(=N)N)NC1=O)C(=O)N[C@@H](Cc1ccc(O)cc1)C(=O)N[C@@H](CCCNC(=N)N)C(=O)N[C@@H](CCCNC(=N)N)C(=O)N[C@H](C(=O)N[C@@H](CC(N)=O)C(=O)O)CSSC[C@H](NC(=O)[C@H](Cc1ccccc1)NC(=O)CN)C(=O)N[C@@H](C)C(=O)N[C@@H](Cc1ccc(O)cc1)C(=O)N[C@@H](C(C)C)C(=O)N2` [compound 4] (H-GFCAYVCVYRNGVRVCYRRCN-OH; disulfide 3-20, 7-16 (inferred); N-terminus and C-terminus assumed) showed an unbound share (fraction unbound) of 0.11. As for `CC(C)[C@@H]1NC(=O)[C@H](CCCNC(=N)N)NC(=O)[C@H](C)NC(=O)CNC(=O)[C@H](CC(N)=O)NC(=O)[C@H](CCCNC(=N)N)NC(=O)[C@H](CCCCN)NC(=O)[C@H](C(C)C)NC(=O)[C@@H]2CSSC[C@H](NC1=O)C(=O)N[C@@H](Cc1ccc(O)cc1)C(=O)N[C@@H](CCCNC(=N)N)C(=O)N[C@@H](CCCNC(=N)N)C(=O)N[C@H](C(=O)N[C@@H](CC(N)=O)C(=O)O)CSSC[C@H](NC(=O)[C@H](Cc1ccccc1)NC(=O)CN)C(=O)N[C@@H](C)C(=O)N[C@@H](Cc1c[nH]cn1)C(=O)N[C@@H](C(C)C)C(=O)N2` [compound 362] (H-GFCAHVCVKRNGARVCYRRCN-OH; disulfide 3-20, 7-16 (inferred); N-terminus and C-terminus assumed), the fraction unbound was 0.24. The figure for `CC(C)[C@@H]1NC(=O)CNC(=O)[C@H](CC(N)=O)NC(=O)[C@H](CCCNC(=N)N)NC(=O)[C@H](Cc2ccc(O)cc2)NC(=O)[C@H](CO)NC(=O)[C@@H]2CSSC[C@H](NC(=O)[C@H](C(C)C)NC(=O)[C@H](CCCNC(=N)N)NC1=O)C(=O)N[C@@H](Cc1ccc(O)cc1)C(=O)N[C@@H](CCCNC(=N)N)C(=O)N[C@@H](CCCNC(=N)N)C(=O)N[C@H](C(=O)N[C@@H](CC(N)=O)C(=O)O)CSSC[C@H](NC(=O)[C@H](Cc1ccccc1)NC(=O)CN)C(=O)N[C@@H](Cc1c[nH]c3ccccc13)C(=O)N[C@@H](Cc1ccc(O)cc1)C(=O)N[C@@H](C(C)C)C(=O)N2` [compound 24] (H-GFCWYVCSYRNGVRVCYRRCN-OH; disulfide 3-20, 7-16) is 0.15. The figure for `CC(C)C[C@@H]1NC(=O)CNC(=O)[C@H](CC(N)=O)NC(=O)[C@H](CCCNC(=N)N)NC(=O)[C@H](CCCNC(=N)N)NC(=O)[C@H](C)NC(=O)[C@@H]2CSSC[C@H](NC(=O)[C@H](CO)NC(=O)[C@H](CCCNC(=N)N)NC1=O)C(=O)N[C@@H](Cc1ccc(O)cc1)C(=O)N[C@@H](CCCNC(=N)N)C(=O)N[C@@H](CCCNC(=N)N)C(=O)N[C@H](C(=O)N[C@@H](CC(N)=O)C(=O)O)CSSC[C@H](NC(=O)[C@H](Cc1ccccc1)NC(=O)CN)C(=O)N[C@@H](Cc1c[nH]c3ccccc13)C(=O)N[C@@H](Cc1ccc(O)cc1)C(=O)N[C@@H](C(C)C)C(=O)N2` [compound 453] (H-GFCWYVCARRNGLRSCYRRCN-OH; disulfide 3-20, 7-16 (inferred); N-terminus and C-terminus assumed) is 0.08.

For `CC(C)[C@@H]1NC(=O)[C@@H]2CSSC[C@H](NC(=O)[C@H](C)NC(=O)[C@H](CCCNC(=N)N)NC(=O)[C@H](CCCCN)NC(=O)CNC(=O)[C@H](CC(N)=O)NC(=O)[C@H](CCCCN)NC(=O)[C@H](Cc3ccc(O)cc3)NC1=O)C(=O)N[C@@H](Cc1ccc(O)cc1)C(=O)N[C@@H](CCCNC(=N)N)C(=O)N[C@@H](CCCNC(=N)N)C(=O)N[C@H](C(=O)N[C@@H](CC(N)=O)C(=O)O)CSSC[C@H](NC(=O)[C@H](Cc1ccccc1)NC(=O)CN)C(=O)NCC(=O)N[C@@H](CCCNC(=N)N)C(=O)N[C@@H](C(C)C)C(=O)N2` [compound 493] (H-GFCGRVCVYKNGKRACYRRCN-OH; disulfide 3-20, 7-16 (inferred); N-terminus and C-terminus assumed), the fraction unbound was 0.23. The figure for `CC(C)[C@@H]1NC(=O)[C@H](Cc2c[nH]cn2)NC(=O)[C@H](Cc2c[nH]c3ccccc23)NC(=O)[C@@H](NC(=O)[C@H](Cc2ccccc2)NC(=O)CN)CSSC[C@@H](C(=O)N[C@@H](CC(N)=O)C(=O)O)NC(=O)[C@H](CCCNC(=N)N)NC(=O)[C@H](CCCNC(=N)N)NC(=O)[C@H](Cc2ccc(O)cc2)NC(=O)[C@@H]2CSSC[C@H](NC1=O)C(=O)N[C@@H](Cc1c[nH]cn1)C(=O)N[C@@H](Cc1ccc(O)cc1)C(=O)N[C@@H](CCCNC(=N)N)C(=O)N[C@@H](CC(N)=O)C(=O)N[C@@H](CO)C(=O)N[C@@H](C(C)C)C(=O)N[C@@H](CCCNC(=N)N)C(=O)N[C@@H](C(C)C)C(=O)N2` [compound 219] (H-GFCWHVCHYRNSVRVCYRRCN-OH; disulfide 3-20, 7-16 (inferred); N-terminus and C-terminus assumed) is 0.01. `CC(C)[C@@H]1NC(=O)[C@H](CCCNC(=N)N)NC(=O)[C@H](CO)NC(=O)CNC(=O)[C@H](CC(N)=O)NC(=O)[C@H](CCCNC(=N)N)NC(=O)[C@H](Cc2ccc(O)cc2)NC(=O)[C@H](C(C)C)NC(=O)[C@@H]2CSSC[C@H](NC1=O)C(=O)N[C@@H](Cc1ccc(O)cc1)C(=O)N[C@@H](CCCNC(=N)N)C(=O)N[C@@H](CCCNC(=N)N)C(=O)N[C@H](C(=O)N[C@@H](CC(N)=O)C(=O)O)CSSC[C@H](NC(=O)[C@H](Cc1ccccc1)NC(=O)CN)C(=O)N[C@@H](Cc1c[nH]c3ccccc13)C(=O)N[C@@H](Cc1ccc(O)cc1)C(=O)N[C@@H](C(C)C)C(=O)N2` [compound 36] (H-GFCWYVCVYRNGSRVCYRRCN-OH; disulfide 3-20, 7-16 (inferred); N-terminus and C-terminus assumed): the fraction unbound is 0.4.

For `CC(C)[C@@H]1NC(=O)CNC(=O)[C@H](CC(N)=O)NC(=O)[C@H](CCCNC(=N)N)NC(=O)[C@H](Cc2ccc(O)cc2)NC(=O)[C@H](C(C)C)NC(=O)[C@@H]2CSSC[C@H](NC(=O)[C@H](C(C)C)NC(=O)[C@H](CCCNC(=N)N)NC1=O)C(=O)N[C@@H](Cc1c[nH]cn1)C(=O)N[C@@H](CCCNC(=N)N)C(=O)N[C@@H](CCCNC(=N)N)C(=O)N[C@H](C(=O)N[C@@H](CC(N)=O)C(=O)O)CSSC[C@H](NC(=O)[C@H](Cc1ccccc1)NC(=O)CN)C(=O)N[C@@H](Cc1c[nH]c3ccccc13)C(=O)N[C@@H](CCCNC(=N)N)C(=O)N[C@@H](C(C)C)C(=O)N2` [compound 76] (H-GFCWRVCVYRNGVRVCHRRCN-OH; disulfide 3-20, 7-16 (inferred); N-terminus and C-terminus assumed), the fraction unbound was 0.08. To `CC(C)[C@@H]1NC(=O)CNC(=O)[C@H](CC(N)=O)NC(=O)[C@H](CCCNC(=N)N)NC(=O)[C@H](Cc2ccc(O)cc2)NC(=O)[C@H](C(C)C)NC(=O)[C@@H]2CSSC[C@H](NC(=O)[C@H]([C@@H](C)O)NC(=O)[C@H](CCCNC(=N)N)NC1=O)C(=O)N[C@@H](Cc1ccc(O)cc1)C(=O)N[C@@H](CCCNC(=N)N)C(=O)N[C@@H](CCCNC(=N)N)C(=O)N[C@H](C(=O)N[C@@H](CC(N)=O)C(=O)O)CSSC[C@H](NC(=O)[C@H](Cc1ccccc1)NC(=O)CN)C(=O)N[C@@H](Cc1ccc(O)cc1)C(=O)N[C@@H](CCCNC(=N)N)C(=O)N[C@@H](C(C)C)C(=O)N2` [compound 209] (H-GFCYRVCVYRNGVRTCYRRCN-OH; disulfide 3-20, 7-16 (inferred); N-terminus and C-terminus assumed) belongs 0.11; to `CC(C)[C@@H]1NC(=O)CNC(=O)[C@H](CC(N)=O)NC(=O)[C@H](CCCNC(=N)N)NC(=O)[C@H](CCCCN)NC(=O)[C@H](C(C)C)NC(=O)[C@@H]2CSSC[C@H](NC(=O)[C@H](CO)NC(=O)[C@H](CCCNC(=N)N)NC1=O)C(=O)N[C@@H](Cc1ccc(O)cc1)C(=O)N[C@@H](CCCNC(=N)N)C(=O)N[C@@H](CCCNC(=N)N)C(=O)N[C@H](C(=O)N[C@@H](CC(N)=O)C(=O)O)CSSC[C@H](NC(=O)[C@H](Cc1ccccc1)NC(=O)CN)C(=O)N[C@@H](Cc1c[nH]c3ccccc13)C(=O)N[C@@H](Cc1ccc(O)cc1)C(=O)N[C@@H](C(C)C)C(=O)N2` [compound 87] (H-GFCWYVCVKRNGVRSCYRRCN-OH; disulfide 3-20, 7-16 (inferred); N-terminus and C-terminus assumed), 0.07; to `CC(C)[C@@H]1NC(=O)[C@H](CCCNC(=N)N)NC(=O)[C@H](C)NC(=O)CNC(=O)[C@H](CC(N)=O)NC(=O)[C@H](CCCNC(=N)N)NC(=O)[C@H](Cc2ccc(O)cc2)NC(=O)[C@H](C(C)C)NC(=O)[C@@H]2CSSC[C@H](NC1=O)C(=O)N[C@@H](Cc1c[nH]cn1)C(=O)N[C@@H](CCCNC(=N)N)C(=O)N[C@@H](CCCNC(=N)N)C(=O)N[C@H](C(=O)N[C@@H](CC(N)=O)C(=O)O)CSSC[C@H](NC(=O)[C@H](Cc1ccccc1)NC(=O)CN)C(=O)N[C@@H](Cc1c[nH]c3ccccc13)C(=O)N[C@@H](CC(N)=O)C(=O)N[C@@H](C(C)C)C(=O)N2` [compound 235] (H-GFCWNVCVYRNGARVCHRRCN-OH; disulfide 3-20, 7-16 (inferred); N-terminus and C-terminus assumed), 0.36.
